The structures appear in SMILES notation. Structures can show the parent of a compound that is named as a salt. Where two headings read alike, the source gives them in different places. A value given as a limit tells only on which side of the number the result lay.

Data on 37 molecules can be found in patent US20120065187A1 (ALCON RESEARCH, LTD, priority 2008, published 2012).

One assay deals with T1, human H4 (Homo sapiens, UniProt Q9H3N8).
T1 construct: host or cells: CHO-K1
Put plainly: In vitro histamine receptor cell-based assay (aequorin bioluminescence), H4 antagonism. The procedure, abridged: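 Antagonism read as loss of aequorin luminescence after histamine (EC80 final) addition, following 15 min room-temperature compound pretreatment of coelenterazine-h-loaded (5 μM) CHO-K1 cells co-expressing human H4 and Gα16. Efficacy given relative to 10 μM JNJ7777120; agonism excluded in separate no-histamine runs.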

In another assay the target is T2, human H1 (Homo sapiens, UniProt P35367).
T2 construct: host or cells: CHO-K1
T2 sequence (P35367 whole entry): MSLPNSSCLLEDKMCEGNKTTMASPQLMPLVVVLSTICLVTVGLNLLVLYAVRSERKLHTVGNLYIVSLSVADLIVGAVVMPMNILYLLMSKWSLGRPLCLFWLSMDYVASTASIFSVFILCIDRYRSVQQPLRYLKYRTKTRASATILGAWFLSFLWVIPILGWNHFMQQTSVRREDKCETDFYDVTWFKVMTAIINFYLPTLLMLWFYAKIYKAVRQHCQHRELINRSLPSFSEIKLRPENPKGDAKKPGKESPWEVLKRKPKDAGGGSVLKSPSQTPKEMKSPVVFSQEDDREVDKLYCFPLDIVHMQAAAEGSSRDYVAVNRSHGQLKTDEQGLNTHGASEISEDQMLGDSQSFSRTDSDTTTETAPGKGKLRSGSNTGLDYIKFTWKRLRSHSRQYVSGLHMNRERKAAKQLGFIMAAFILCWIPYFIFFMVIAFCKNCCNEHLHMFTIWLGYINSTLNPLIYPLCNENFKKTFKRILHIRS
Put plainly: In vitro histamine receptor cell-based assay (aequorin bioluminescence), H1 antagonism. Conditions: CHO-K1 cells expressing human H1 and aequorin; histamine at EC80; read-out: H1 Antagonist EC50. The method, boiled down:
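Antagonism read as drop in aequorin luminescence after histamine challenge at a predetermined EC80, following 15 min compound pretreatment at room temperature. Cells: CHO-K1 carrying human H1, or H4 with Gα16; signal as AUC or amplitude, normalised to 10 μM diphenhydramine (H1) or JNJ7777120 (H4).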

Where [1] appears, read: CHO-K1 cells expressing human H4, aequorin and Gα16, histamine at EC80, read-out: H4 Antagonist EC50.

T1 sequence (Q9H3N8 whole entry): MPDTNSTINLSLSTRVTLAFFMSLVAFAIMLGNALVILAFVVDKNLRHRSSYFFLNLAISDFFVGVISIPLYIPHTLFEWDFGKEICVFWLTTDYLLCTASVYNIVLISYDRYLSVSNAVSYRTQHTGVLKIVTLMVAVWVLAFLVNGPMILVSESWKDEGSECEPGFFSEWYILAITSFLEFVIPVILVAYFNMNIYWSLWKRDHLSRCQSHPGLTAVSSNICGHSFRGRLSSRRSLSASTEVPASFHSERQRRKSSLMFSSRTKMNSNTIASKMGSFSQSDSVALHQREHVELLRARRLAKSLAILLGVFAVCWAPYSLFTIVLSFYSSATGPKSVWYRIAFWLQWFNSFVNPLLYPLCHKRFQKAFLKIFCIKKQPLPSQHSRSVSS

In general, EC50 refers to the midpoint of the concentration-response curve. On to `Cc1nc2c(N3CCNCC3)nc3ccc(Cl)cc3n2n1` [Example 164, 8-chloro-2-methyl-4-(piperazin-1-yl)-[1,2,4]triazolo[1,5-a]quinoxaline], for which the EC50 at human H4 (setting [1]) was below 10 µM; at human H1, above 10 µM.

In the case of `Clc1ccc2nc(N3CCNCC3)c3nocc3c2c1` [Example 167, 8-Chloro-4-(piperazin-1-yl)isoxazolo[3,4-c]quinoline], the EC50 on human H4 (setting [1]) and on human H1 was below 10 µM in each case.

Take `Clc1cc2nc(N3CCNCC3)c3nncn3c2cc1Cl` [Example 168, 7,8-dichloro-4-(piperazin-1-yl)-[1,2,4]triazolo[4,3-a]quinoxaline]: the EC50 on human H4 (setting [1]) is below 10 µM; at human H1 it was above 10 µM.

As to `Fc1c(C(F)(F)F)ccc2nc(N3CCNCC3)c3nncn3c12` [Example 169, 9-fluoro-4-(piperazin-1-yl)-8-(trifluoromethyl)-[1,2,4]triazolo[4,3-a]quinoxaline], the figures for the EC50 at human H4 (setting [1]) and on human H1 were below 10 µM and above 10 µM, respectively.

For the molecule `CN1CCN(c2nc3c(F)c(C(F)(F)F)ccc3n3cnnc23)CC1` [Example 170, 6-fluoro-4-(4-methylpiperazin-1-yl)-7-(trifluoromethyl)-[1,2,4]triazolo[4,3-a]quinoxaline], the EC50 was below 10 µM on human H4 (setting [1]) and above 10 µM on human H1.

On to `Fc1c(C(F)(F)F)ccc2nc(N3CCNCC3)c3nnnn3c12` [Example 172, 9-fluoro-4-(piperazin-1-yl)-8-(trifluoromethyl)tetrazolo[1,5-a]quinoxaline], for which the EC50 at human H4 (setting [1]) was below 10 µM; on human H1, above 10 µM.

As to `CC(C)c1ccc2nc(N3CCN(C)CC3)c3nncn3c2c1` [Example 173, 8-isopropyl-4-(4-methylpiperazin-1-yl)-[1,2,4]triazolo[4,3-a]quinoxaline], the EC50 at human H4 (setting [1]) was below 10 µM; at human H1, above 10 µM.

Consider `C/C=C/c1ccc2nc(N3CCN(C)CC3)c3nncn3c2c1` [Example 174, (E)-4-(4-methylpiperazin-1-yl)-8-(prop-1-enyl)-[1,2,4]triazolo[4,3-a]quinoxaline], for which the 50% effective concentration (EC50) at human H4 (setting [1]) is below 10 µM; on human H1, above 10 µM.

On to `CCCc1ccc2nc(N3CCN(C)CC3)c3nncn3c2c1` [Example 175, 4-(4-methylpiperazin-1-yl)-8-propyl-[1,2,4]triazolo[4,3-a]quinoxaline], for which the results for the EC50 on human H4 (setting [1]) and at human H1 were below 10 µM and above 10 µM, respectively.

For `CC(C)Nc1ccc2nc(N3CCN(C)CC3)c3nncn3c2c1` [Example 176, N-isopropyl-4-(4-methylpiperazin-1-yl)-[1,2,4]triazolo[4,3-a]quinoxalin-8-amine], the EC50 at human H4 (setting [1]) and on human H1 was above 10 µM in each case.

As to `CN1CCN(c2nc3ccc(C(F)(F)F)cc3n3ccnc23)CC1` [Example 177], the EC50 at human H4 (setting [1]) is below 10 µM; at human H1, above 10 µM.

On to `FC(F)(F)c1ccc2nc(N3CCNCC3)c3nccn3c2c1` [Example 178, 4-(piperazin-1-yl)-8-(trifluoromethypimidazo[1,2-a]quinoxaline hydrochloride], for which the EC50 is below 10 µM on human H4 (setting [1]) and above 10 µM on human H1.

As for `CN1CCN(c2nc3cc(F)c(Cl)cc3n3ccnc23)CC1` [Example 179], the EC50 was below 10 µM at human H4 (setting [1]) and above 10 µM at human H1.

As for `Fc1cc2nc(N3CCNCC3)c3nccn3c2cc1Cl` [Example 180, 8-chloro-7-fluoro-4-(piperazin-1-yl)imidazo[1,2-a]quinoxaline], the concentration giving a half-maximal response (EC50) at human H4 (setting [1]) and at human H1 was below 10 µM throughout.

As for `CN1CCN(c2nc3cc(F)c(F)cc3n3ccnc23)CC1` [Example 181, 7,8-difluoro-4-(4-methylpiperazin-1-yl)imidazo[1,2-a]quinoxaline], the EC50 at human H4 (setting [1]) was below 10 µM; on human H1, above 10 µM.

Regarding `Fc1cc2nc(N3CCNCC3)c3nccn3c2cc1F` [Example 182, 7,8-difluoro-4-(piperazin-1-yl)imidazo[1,2-a]quinoxaline], the EC50 at human H4 (setting [1]) and on human H1 was below 10 µM throughout.

`FC(F)(F)c1ccc2c(c1)nc(N1CCNCC1)c1nccn12` [Example 183, 4-(piperazin-1-yl)-7-(trifluoromethyl)imidazo[1,2-a]quinoxaline hydrochloride]: the EC50 on human H4 and at human H1 was above 10 µM each time.

Consider `Fc1cc2nc(N3CCNCC3)c3nncn3c2cc1Br` [Example 184, 8-bromo-7-fluoro-4-(piperazin-1-yl)-[1,2,4]triazolo[4,3-a]quinoxaline], for which the EC50 at human H4 (setting [1]) is below 10 µM; on human H1, above 10 µM.

Consider `CN1CCN(c2nc3cc(F)c(Br)cc3n3cnnc23)CC1` [Example 185, 8-bromo-7-fluoro-4-(4-methylpiperazin-1-yl)-[1,2,4]triazolo[4,3-a]quinoxaline], for which the concentration for a half-maximal effect (EC50) at human H4 (setting [1]) was below 10 µM; at human H1 it was above 10 µM.

For `Fc1cc2nc(N3CCNCC3)c3nnnn3c2cc1C(F)(F)F` [Example 186, 7-fluoro-4-(piperazin-1-yl)-8-(trifluoromethyl)tetrazolo[1,5-a]quinoxaline], the results for the EC50 at human H4 (setting [1]) and on human H1 were below 10 µM and above 10 µM, respectively.

Regarding `CN1CCN(c2nc3cc(F)c(C(F)(F)F)cc3n3nnnc23)CC1` [Example 187, 7-fluoro-4-(4-methylpiperazin-1-yl)-8-(trifluoromethyl)tetrazolo[1,5-a]quinoxaline], the values for the EC50 at human H4 (setting [1]) and on human H1 were below 10 µM and above 10 µM, respectively.

On to `Fc1cc2nc(N3CCNCC3)c3nnnn3c2cc1Cl` [Example 188, 8-chloro-7-fluoro-4-(piperazin-1-yl)tetrazolo[1,5-a]quinoxaline], for which the EC50 at human H4 (setting [1]) is below 10 µM; on human H1 it was above 10 µM.

For the molecule `CN1CCN(c2nc3cc(F)c(Cl)cc3n3nnnc23)CC1` [Example 189, 8-chloro-7-fluoro-4-(4-methylpiperazin-1-yl)tetrazolo[1,5-a]quinoxaline], the EC50 at human H4 (setting [1]) is below 10 µM; on human H1, above 10 µM.

On to `CN1CCN(c2nc3cc(F)c(F)cc3n3nnnc23)CC1` [Example 190, 7,8-difluoro-4-(4-methylpiperazin-1-yl)tetrazolo[1,5-a]quinoxaline], for which the EC50 at human H4 (setting [1]) is below 10 µM; on human H1, above 10 µM.

On to `Fc1cc2nc(N3CCNCC3)c3nnnn3c2cc1F` [Example 191, 7,8-difluoro-4-(piperazin-1-yl)tetrazolo[1,5-a]quinoxaline], for which the EC50 is below 10 µM on human H4 (setting [1]) and above 10 µM on human H1.

In the case of `Fc1cc(Cl)cc2nc(N3CCNCC3)c3nncn3c12` [Example 192, 7-chloro-9-fluoro-4-(piperazin-1-yl)-[1,2,4]triazolo[4,3-a]quinoxaline], the EC50 on human H4 (setting [1]) and on human H1 was above 10 µM each time.

On to `CN1CCN(c2nc3cc(Br)ccc3n3cnnc23)CC1` [Example 193, 7-bromo-4-(4-methylpiperazin-1-yl)-[1,2,4]triazolo[4,3-a]quinoxaline], for which the EC50 at human H4 (setting [1]) was below 10 µM; at human H1, above 10 µM.

With `Brc1ccc2c(c1)nc(N1CCNCC1)c1nnnn12` [Example 194, 7-bromo-4-(piperazin-1-yl)tetrazolo[1,5-a]quinoxaline hydrochloride], the EC50 was below 10 µM at human H4 (setting [1]) and above 10 µM at human H1.

Turning to `CN1CCN(c2nc3cc(Br)ccc3n3nnnc23)CC1` [Example 195, 7-bromo-4-(4-methylpiperazin-1-yl)tetrazolo[1,5-a]quinoxaline], the results for the half-maximal effective concentration (EC50) on human H4 (setting [1]) and on human H1 were below 10 µM and above 10 µM, respectively.

As to `Fc1cc(Cl)cc2c1nc(N1CCNCC1)c1nncn12` [Example 196, 8-chloro-6-fluoro-4-(piperazin-1-yl)-[1,2,4]triazolo[4,3-a]quinoxaline], the EC50 is below 10 µM at human H4 (setting [1]) and above 10 µM on human H1.

For the molecule `CN1CCN(c2nc3c(F)cc(Cl)cc3n3cnnc23)CC1` [Example 197, 8-chloro-6-fluoro-4-(4-methylpiperazin-1-yl)-[1,2,4]triazolo[4,3-a]quinoxaline], the EC50 on human H4 (setting [1]) is below 10 µM; on human H1, above 10 µM.

For the molecule `Fc1cc2c(cc1Br)nc(N1CCNCC1)c1nncn12` [Example 198, 7-bromo-8-fluoro-4-(piperazin-1-yl)-[1,2,4]triazolo[4,3-a]quinoxaline], the EC50 is below 10 µM at human H4 (setting [1]) and above 10 µM on human H1.

Turning to `CN1CCN(c2nc3cc(Br)c(F)cc3n3cnnc23)CC1` [Example 199, 7-bromo-8-fluoro-4-(4-methylpiperazin-1-yl)-[1,2,4]triazolo[4,3-a]quinoxaline], the EC50 was below 10 µM on human H4 (setting [1]) and above 10 µM at human H1.

With `Fc1cc2c(cc1C(F)(F)F)nc(N1CCNCC1)c1nnnn12` [Example 200, 8-fluoro-4-(piperazin-1-yl)-7-(trifluoromethyl)tetrazolo[1,5-a]quinoxaline], the figures for the EC50 at human H4 (setting [1]) and on human H1 were below 10 µM and above 10 µM, respectively.

Consider `CN1CCN(c2nc3cc(C(F)(F)F)c(F)cc3n3nnnc23)CC1` [Example 201, 8-fluoro-4-(4-methylpiperazin-1-yl)-7-(trifluoromethyl)tetrazolo[1,5-a]quinoxaline], for which the values for the EC50 at human H4 (setting [1]) and at human H1 were below 10 µM and above 10 µM, respectively.

On to `Cc1nc2c(N3CCN(C)CC3)nc3ccc(C(F)(F)F)cc3c2o1` [Example 214, 2-methyl-4-(4-methylpiperazin-1-yl)-8-(trifluoromethyl)oxazolo[4,5-c]quinoline], for which the 50% effective concentration (EC50) on human H4 (setting [1]) is below 10 µM; at human H1 it was above 10 µM.

Take `Cc1nc2c(N3CCNCC3)nc3ccc(C(F)(F)F)cc3c2o1` [Example 215, 2-methyl-4-(piperazin-1-yl)-8-(trifluoromethyl)oxazolo[4,5-c]quinoline]: the EC50 was below 10 µM on human H4 (setting [1]) and above 10 µM on human H1.
